Test results from patent US20080014199A1, “Assessing Cancer And Vimentin” (MAYO FOUNDATION FOR MEDICAL EDUCATION AND RESEARCH, priority 2006, published 2008).
Entries after “also recorded” stand apart in the source; their conditions may differ. No end group written: not given here. fluorescein = fluorescein label conjugated to the peptide

Assays:
CLL B cells = assay: Immunofluorescence staining of CLL B cell cytospins with FPSAHFL-displaying phage or fluorescein labelled polypeptide; format: binding, human; settings: phage plus fluorescent anti-phage antibodies or fluorescein-labelled polypeptide
Source text: FIG. 2 contains fluorescence photomicrographs showing binding of the FPSAHFL (SEQ ID NO:2) polypeptide to CLL B cells. CLL B cells were placed on slides by cytospining and were stained with phages displaying the FPSAHFL (SEQ ID NO:2) polypeptide and FITC labeled anti-phage antibody (A and D) or were stained directly with fluorescein conjugated FPSAHFL (SEQ ID NO:2) polypeptide (B, C, and E).
Binding of the FPSAHFL (SEQ ID NO:2) polypeptide to CLL B cells was investigated using immunofluorescence. Cytospins of 10^5 CLL B cells (see, Example 1) were prepared and incubated for 20 minutes at room temperature with phages displaying FPSAHFL (SEQ ID NO:2; 10^8 pfu). The cells were then washed twice with PBS and incubated for 15 minutes at room temperature with 10 μg of mouse anti-M13 phage antibodies (New England Biolabs). The cells were stained for 15 minutes at room temperature with 2 μg of fluorescein isothiocyanate (FITC) labelled secondary anti-mouse antibodies (Vector Laboratories Inc, Burlingame, Calif., USA). Non-displaying M13 phages were used as a control (New England Biolabs) and co-staining with 4′-6-Diamidino-2-phenylindole (DAPI) was used to identify cells. […] The purity of the polypeptide preparation (>99.9%) was assessed by mass spectrometry and high performance liquid chromatography using internal standards.

unmutated CLL B cells = assay: Subtraction biopanning with phage display polypeptide library on unmutated versus mutated CLL B cells; format: binding, human
Experimental: Phages displaying IgVH mutational status-specific polypeptides were isolated. 10^11 plaque forming units (pfu) of PDPL Ph.D.-7 (New England Biolabs, Ipswich, Mass.) were added to 10^6 unmutated CLL B cells suspended in 1 mL of phosphate buffered saline (PBS) containing 0.5% bovine serum albumin (BSA), and the mixture was incubated at room temperature for 1 hour with gentle rocking (FIG. 1A). The cells with attached phages were spun down and washed three times with PBS containing 0.5% BSA (FIG. 1B). The attached phages were then eluted for 20 minutes by adding 1 mL of elution buffer (1% BSA, 0.2 M Glycine-HCl, pH 2.2; FIG. 1C). The elution buffer was neutralized with 0.15 mL of 1 M Tris-HCl (pH 9.1). The eluted phages were precipitated by adding 0.2 mL of a solution containing 20% (w/v) polyethylene glycol 8,000 (Sigma, Saint Louis, Mo.) and 2.5 M NaCl. The eluted phages were then added to a suspension of 10^6 mutated CLL B cells in PBS with 0.5% BSA and incubated with gentle rocking for 40 minutes. The cells with bound phages (FIG. 1D) were spun down, leaving the supernatant containing unbound phages. This latter step was repeated four times to ensure complete subtraction of phages binding to mutated CLL B cells. The unbound phages in the supernatant were titered, amplified and purified as described elsewhere (Nowakowski et al., Stem Cells, 22(6):1030-8 (2004); FIG. 1E). […]

vimentin [1] = molecular target: T1, vimentin (Homo sapiens, UniProt P08670); assay: Immunoprecipitation of CLL B cell lysates with FPSAHFL phage and anti-phage antibodies, Western blotting, nano LC-MS/MS target identification; format: binding
T1 construct: CLL B cell lysates were immunoprecipitated using phage and anti-phage antibodies; endogenous in cells; host or cells: primary CLL B cells (patient leukemic cells), total protein lysate
Experimental: (§1) To identify FPSAHFL (SEQ ID NO:2) polypeptide targets, CLL B cell lysates were immunoprecipitated using phage and anti-phage antibodies. Total protein extracts were prepared from primary leukemic cells (see, Example 1) by lysing cells in cold lysis buffer (30 mM Tris-HCl, pH 7.4; 150 mM NaCl; 1% glycerol (v/v); 1% Triton X-100 (v/v); and 2 mM EDTA) in the presence of phosphatase inhibitors (100 mM NaF, 10 mM Na4P2O4, 1 mM Na2VO4), and protease inhibitors (10 μg/mL Leupeptin, 10 μg/mL Pepstatin A, and 1 mM phenylmethylsulfonyl fluoride (PMSF)). After centrifugation to remove cell debris, protein extracts were immunoprecipitated overnight at 4° C. on a rotator with phages displaying FPSAHFL (SEQ ID NO:2; 10^11 pfu[…]), anti-M13 phage antibodies and 40 μL goat anti-mouse IgG-sepharose 4B beads (Zymed, San Francisco, Calif., USA), according to the manufacturer's instructions. The beads were washed three times with lysis buffer, resuspended into a loading buffer and subjected to SDS-PAGE (5%-15%) under reducing conditions. The polypeptide was visualized by Coomassie blue or silver staining. To confirm that the immunoprecipitated polypeptide was indeed the target for FPSAHFL (SEQ ID NO:2) phage, Western blotting was performed using staining with FPSAHFL (SEQ ID NO:2) phage and anti-M13 phage antibodies. Non-displaying phage were used as a control. […]

vimentin [2] = molecular target: T2, vimentin (human (CLL patients), UniProt P08670 2-466); assay: immunoprecipitation from CLL B cell lysate with phage and anti-M13 antibodies; Western blot with phage
T2 construct: Endogenous protein from total protein extracts of CLL patient cells; It ran on SDS-PAGE under reducing conditions for the Western blot; also called 56 kDa band; immunoprecipitated polypeptide
Experimental: as §1, with “Na₄P₂O₄,” for “Na4P2O4,”, “Na₂VO₄),” for “Na2VO4),”, “10¹¹” for “10^11”

T1 sequence (P08670 whole entry): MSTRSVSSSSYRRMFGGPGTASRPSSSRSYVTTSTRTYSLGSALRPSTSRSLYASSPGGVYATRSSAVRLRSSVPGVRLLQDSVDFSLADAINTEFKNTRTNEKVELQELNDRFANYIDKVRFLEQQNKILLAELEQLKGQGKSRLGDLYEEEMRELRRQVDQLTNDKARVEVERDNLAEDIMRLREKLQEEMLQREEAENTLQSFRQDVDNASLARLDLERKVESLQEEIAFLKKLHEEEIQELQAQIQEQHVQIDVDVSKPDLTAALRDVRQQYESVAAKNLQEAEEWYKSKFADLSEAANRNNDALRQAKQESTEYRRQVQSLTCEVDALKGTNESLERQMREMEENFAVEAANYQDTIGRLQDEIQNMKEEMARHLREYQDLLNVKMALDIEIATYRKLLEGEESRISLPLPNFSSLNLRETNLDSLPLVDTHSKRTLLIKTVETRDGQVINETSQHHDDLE
T2 sequence (P08670 2-466 limits assumed): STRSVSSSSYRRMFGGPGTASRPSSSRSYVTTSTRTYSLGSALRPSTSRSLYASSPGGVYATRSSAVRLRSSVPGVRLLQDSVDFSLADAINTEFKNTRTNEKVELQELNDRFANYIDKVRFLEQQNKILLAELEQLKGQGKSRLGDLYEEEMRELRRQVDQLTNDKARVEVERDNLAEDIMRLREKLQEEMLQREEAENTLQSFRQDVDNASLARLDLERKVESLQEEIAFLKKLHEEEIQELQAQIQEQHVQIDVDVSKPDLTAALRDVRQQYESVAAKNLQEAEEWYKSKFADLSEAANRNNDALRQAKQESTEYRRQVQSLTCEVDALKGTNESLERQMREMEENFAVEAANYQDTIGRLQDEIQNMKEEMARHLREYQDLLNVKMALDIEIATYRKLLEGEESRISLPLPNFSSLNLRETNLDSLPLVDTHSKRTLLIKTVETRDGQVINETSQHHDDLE

Row | Molecule | Cellular localization of binding (pattern of staining) (CLL B cells) | Percentage of sequenced single phage colonies encoding the polypeptide (unmutated CLL B cells; fourth round of biopanning) [%] | Percentage of sequenced single phage colonies encoding the polypeptide (unmutated CLL B cells; third round of subtraction biopanning) [%] | Target of the polypeptide identified (vimentin [1]; in-gel trypsin digestion, nano LC-MS/MS, Mascot and Sequest) | Band immunoprecipitated from CLL polypeptides (vimentin [1]; phage bearing the polypeptide and anti-phage antibodies, binding confirmed by Western blotting) [kDa] | binding result (vimentin [2])
1 | FPSAHFL (fluorescein-FPSAHFL) [also synthesized and fluorescein labelled at the N terminus] | localized within the cytoplasm; also recorded: cytoplasmic pattern of staining | 34 | 20 | vimentin | 56 | –
2 | FPSAHFL (peptide, not shown: large carriers, also: displayed on M13 phage coat protein, fusion end not given here, 7-mer selected from the Ph.D.-7 phage display library) [phage displaying the FPSAHFL (SEQ ID NO:2) polypeptide] | – | – | – | – | – | binds
